Assay results: patent US12171229B2, “Heteroaryl-triazole and heteroaryl-tetrazole compounds as pesticides” (BAYER AKTIENGESELLSCHAFT, priority 2018, dated 2024)

Legend:
Format in all cases: in vivo
[1] = test system: Boophilus microplus; assay: Boophilus microplus injection test; settings: Rhipicephalus microplus, 168 h; 20 μg/animal injected into the abdomen; adult engorged female ticks; egg deposition after 7 days; read-out: efficacy (infertile eggs)
Procedure, shortened: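 Efficacy, from 0% (all eggs fertile) to 100% (all infertile), was scored on eggs laid by five engorged adult females. Each female was injected intra-abdominally with 1 μl of compound solution in DMSO. Fertile egg laying was checked at 7 days, with uncertain eggs kept until hatching at about 42 days.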

[2] = test system: cattle ticks (Boophilus microplus) strane Parhurst, SP-resistant; assay: Boophilus microplus dip test; settings: Rhipicephalus microplus, 168 h, engorged adult female cattle ticks, egg deposition after 7 days, read-out: efficacy (infertile eggs)
Procedure: Boophilus microplus—Dip Test
Test animal: cattle ticks (Boophilus microplus) strane Parhurst, SP-resistant
Solvent: dimethyl sulfoxide
To produce a suitable preparation of active compound, 10 mg of active compound are dissolved in 0.5 ml solvent, and the concentrate is diluted with water to the desired concentration.
This compound solution is pipetted into tubes. 8-10 engorged, adult, female cattle ticks (Boophilus microplus) are placed in perforated tubes. These tubes are immersed in the aqueous compound solution until the ticks are completely moistened. After the liquid has drained off, the ticks are transferred to a filter paper in a plastic tray and stored in a climate chamber.
After 7 days egg deposition of fertile eggs is monitored. Eggs where fertility is not visible are stored in a climate chamber till hatching after about 42 days. An efficacy of 100% means all eggs are infertile; 0% means all eggs are fertile.

[3] = test system: Meloidogyne incognita; assay: Meloidogyne incognita test; settings: 20 ppm; after 14 days; salad seedlings
Procedure: Meloidogyne incognita—Test Solvent: 125.0 parts by weight of acetone To produce a suitable preparation of active compound, 1 part by weight of active compound is mixed with the stated amount of solvent, and the concentrate is diluted with water to the desired concentration. Vessels are filled with sand, a solution of the active ingredient, a suspension containing eggs and larvae of the southern root-knot nematode (Meloidogyne incognita) and salad seeds. The salad seeds germinate and the seedlings grow. Galls develop in the roots. After 14 days the nematicidal activity is determined on the basis of the percentage of gall formation. 100% means no galls were found and 0% means the number of galls found on the roots of the treated plants was equal to that in untreated control plants.

[4] = test system: Myzus persicae; assay: Myzus persicae spray test; settings: foliar, 120 h, after 5 days, Chinese cabbage leaf disks
Procedure, shortened: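 Percent kill was recorded 5 days after spraying. Test solutions, prepared with solvent and diluted in 1000 ppm emulsifier water, were applied to Brassica pekinensis leaf disks carrying mixed-instar green peach aphids.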

[5] = test system: Spodoptera frugiperda; assay: Spodoptera frugiperda spray test; settings: 168 h, after 7 days, larvae on maize leaf sections
Procedure, shortened: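 Read-out: % larval mortality at day 7, where 100% means all killed and 0% none killed. Compound diluted in water with 1000 ppm emulsifier, sprayed onto Zea mays leaf sections; dried sections then infested with S. frugiperda larvae.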

[6] = test system: Aedes aegypti strain MONHEIM; assay: Aedes aegypti test (AEDSAE surface treatment & contact assay); settings: 24 hours after contact, read-out: efficacy (mortality); for mortality at 4 mg/m2: surface concentration 4 mg/m^2, exposure 30 minutes; for mortality at 20 mg/m2: surface concentration 20 mg/m^2, exposure 30 minutes
Procedure, shortened: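 Compound dissolved in acetone (2 mg/ml) with 2000 ppm rapeseed oil methyl ester, applied to glazed tile and dried; adult strain MONHEIM mosquitoes exposed 30 minutes. Percent mortality scored 24 hours after contact.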

[7] = test system: Rhipicephalus sanguineus; assay: Rhipicephalus sanguineus in-vitro contact test, adult brown dog ticks; settings: 5 μg/cm^2 (=500 g/ha), after 48 hours, read-out: efficacy (ticks dead or moribund)
Procedure: Rhipicephalus Sanguineus—In-Vitro Contact Tests with Adult Brown Doe Ticks
9 mg compound is solved in 1 ml acetone and diluted with acetone to the desired concentration. 250 μl of the test solution is filled in 25 ml glass test tubes and homogeneously distributed on the inner walls by rotation and tilting on a shaking device (2 h at 30 rpm). With a compound concentration of 900 ppm, an inner surface of 44.7 cm^2 and a homogeneous distribution, a dose of 5 μg/cm^2 is achieved.
After the solvent has evaporated, each test tube is filled with 5-10 adult brown dog ticks (Rhipicephalus sanguineus), closed with a perforated lid and incubated in a lying position at room temperature and relative humidity. After 48 hours efficacy is determined. The ticks are patted on the ground of the tubes and are incubated on a heating plate at 45-50° C. for at most 5 minutes. Immotile or uncoordinated moving ticks, which are not able to escape the heat by climbing upwards, are marked as dead or moribund.
An efficacy of 100% means all ticks are dead or moribund; 0% means no ticks are dead or moribund.

[8] = test system: Tetranychus urticae; assay: Tetranychus urticae spray test (OP-resistant); settings: foliar, 144 h, after 6 days, French bean leaf disks
Procedure: Tetranychus urticae—Spray Test (OP-Resistant)
(§1) To produce a suitable preparation of active compound, 1 part by weight of active compound is mixed with the stated amount of solvents and is diluted with water, containing an emulsifier concentration of 1000 ppm, to the desired concentration. Further test concentrations are prepared by dilution with emulsifier containing water.
French bean (Phaseolus vulgaris) leaf disks infected with all instars of the two spotted spidermite (Tetranychus urticae), are sprayed with a preparation of the active ingredient of the desired concentration.
After 6 days mortality in % is determined. 100% means all spider mites have been killed and 0% means none of the spider mites have been killed.

[9] = test system: Nilaparvata lugens; assay: Nilaparvata lugens spray test; settings: 336 h, after 14 days, rice plants
Procedure: Nilaparvata lugens—Spray Test
as §1
Rice plants (Oryza sativa) are sprayed with a preparation of the active ingredient of the desired concentration and the plants are infested with the brown planthopper (Nilaparvata lugens).
After 14 days mortality in % is determined. 100% means all planthoppers have been killed and 0% means none of the planthoppers have been killed.

| Compound | pest or weed control at 0.02 mg [1] [%] | pest or weed control at 100 ppm [2] [%] | nematicidal activity (gall formation) [3] [%] | mortality at 100 g/ha [4] [%] | mortality at 500 g/ha [4] [%] | mortality at 100 g/ha [5] [%] | mortality at 500 g/ha [5] [%] | mortality at 4 mg/m2 [6] [%] | mortality at 20 mg/m2 [6] [%] | pest or weed control at 5 µg/cm2 [7] [%] | mortality at 500 g/ha [8] [%] | mortality at 500 g/ha [9] [%] |
| --- | --- | --- | --- | --- | --- | --- | --- | --- | --- | --- | --- | --- |
| C[C@H](NC(=O)c1cc(Cl)cc(C(F)(F)F)c1)c1ncnn1-c1ncc(Cl)cc1F [Example I-013] | 100 | 100 | 90 | 90 | 100 | 100 | 100 | 90 to 100 | 90 to 100 | – | – | – |
| C[C@H](NC(=O)c1cc(C(F)(F)F)cc(C(F)(F)F)c1)c1ncnn1-c1ccc(C#N)cn1 [Example I-052] | 100 | – | – | – | 90 | 100 | 100 | 90 to 100 | 90 to 100 | 100 | – | – |
| C[C@H](NC(=O)c1cc(F)cc(C#N)c1)c1ncnn1-c1ccc(C#N)cn1 [Example I-018] | 100 | – | – | – | – | 100 | 100 | 90 to 100 | 90 to 100 | – | – | – |
| Cc1nc([C@H](C)NC(=O)c2cc(C(F)(F)F)cc(C(F)(F)F)c2)n(-c2ccc(C#N)cn2)n1 [Example I-056] | 100 | – | – | 100 | 90 | 100 | 100 | 90 to 100 | 90 to 100 | 100 | – | – |
| C[C@H](NC(=O)c1cc(Cl)cc(Cl)c1)c1ncnn1-c1ccc(C#N)cn1 [Example I-047] | 100 | 100 | – | – | – | 100 | 100 | 90 to 100 | 90 to 100 | – | – | – |
| C[C@H](NC(=O)c1cc(Cl)cc(SC(F)(F)F)c1)c1ncnn1-c1ccc(C#N)cn1 [Example I-042] | 100 | 80 | – | – | – | 100 | 100 | 90 to 100 | 90 to 100 | – | 90 | – |
| C[C@H](NC(=O)c1cc(Cl)cc(C(F)(F)F)c1)c1ncnn1-c1ccc([N+](=O)[O-])cn1 [Example I-028] | 100 | 100 | – | – | – | 100 | 100 | 90 to 100 | 90 to 100 | – | – | – |
| C[C@H](NC(=O)c1cc(Cl)cc(C(F)(F)F)c1)c1ncnn1-c1cc(C#N)ccn1 [Example I-015] | 100 | – | – | 100 | 100 | 100 | 100 | 90 to 100 | 90 to 100 | 100 | – | – |
| C[C@H](NC(=O)c1cc(Cl)cc(Br)c1)c1ncnn1-c1ccc(C#N)cn1 [Example I-046] | 100 | 100 | – | – | – | 100 | 100 | 90 to 100 | 90 to 100 | – | – | – |
| C[C@H](NC(=O)c1cc(Cl)cc(OC(F)(F)F)c1)c1ncnn1-c1ccc(C#N)cn1 [Example I-041, 3-chloro-N-{(1S)-1-[1-(5-cyanopyridin-2-yl)-1H-1,2,4-triazol-5-yl]ethyl}-5-(trifluoromethoxy)benzamide] | 100 | 100 | – | – | – | 100 | 100 | 90 to 100 | 90 to 100 | – | – | 90 |
| C[C@H](NC(=O)c1cc(F)cc(C(F)(F)F)c1)c1ncnn1-c1ccc(C#N)cn1 [Example I-019] | 100 | 100 | – | – | – | 100 | 100 | 90 to 100 | 90 to 100 | – | – | – |
| C[C@H](NC(=O)c1cc(Cl)cc(C(F)(F)F)c1)c1ncnn1-c1ccc(C#N)cn1 [Example I-009] | 100 | 100 | – | – | 90 | 100 | 100 | 90 to 100 | 90 to 100 | 100 | – | – |
| Cc1nc([C@H](C)NC(=O)c2cc(Cl)cc(C(F)(F)F)c2)n(-c2ccc(C#N)cn2)n1 [Example I-049] | 100 | 100 | – | 100 | 90 | 100 | 100 | 90 to 100 | 90 to 100 | 100 | – | 100 |
| C[C@H](NC(=O)c1cc(Cl)cc(S(F)(F)(F)(F)F)c1)c1ncnn1-c1ccc(C#N)cn1 [Example I-048] | 100 | – | – | – | – | 100 | 100 | 90 to 100 | 90 to 100 | – | – | 100 |
| CC(c1ncnn1-c1ccc(C#N)cn1)N(CC1CC1)C(=O)c1cc(Cl)cc(C(F)(F)F)c1 (centres unmarked) [Example I-007] | 100 | 80 | – | – | – | 100 | 100 | 90 to 100 | 90 to 100 | – | – | – |
| C[C@H](NC(=O)c1cc(Cl)cc(C(F)(F)F)c1)c1ncnn1-c1ccc(NC(=O)C2CC2)cn1 [Example I-034, 3-chloro-N-[(1S)-1-(1-{5-[(cyclopropylcarbonyl)amino]pyridin-2-yl}-1H-1,2,4-triazol-5-yl)ethyl]-5-(trifluoromethyl)benzamide] | 100 | – | – | 100 | 100 | 100 | 100 | 90 to 100 | 90 to 100 | – | – | 100 |
